# From article PMC10641276 (Saudi Pharmaceutical Journal : SPJ, 2023)
# Target: thymidine phosphorylase (Escherichia coli, UniProt P07650)
# Format: biochemical
# Conditions: thymidine phosphorylase inhibition versus standard drug (7-deazaxanthine)
# Sequence of thymidine phosphorylase (P07650 whole entry): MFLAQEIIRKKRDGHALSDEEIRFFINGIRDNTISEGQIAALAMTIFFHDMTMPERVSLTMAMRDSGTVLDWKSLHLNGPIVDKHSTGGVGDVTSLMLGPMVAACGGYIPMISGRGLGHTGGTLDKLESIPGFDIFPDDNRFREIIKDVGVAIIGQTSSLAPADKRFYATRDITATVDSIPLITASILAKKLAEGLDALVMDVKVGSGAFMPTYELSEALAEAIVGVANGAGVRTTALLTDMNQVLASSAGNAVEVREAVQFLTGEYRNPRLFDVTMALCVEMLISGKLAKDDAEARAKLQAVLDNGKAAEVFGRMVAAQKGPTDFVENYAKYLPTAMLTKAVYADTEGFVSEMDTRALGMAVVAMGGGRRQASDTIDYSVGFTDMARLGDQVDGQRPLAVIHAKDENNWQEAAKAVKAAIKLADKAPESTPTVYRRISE
row,Structure (SMILES),potency compared with standard drug
1,"C(=N\c1nnc(-c2cccc(-c3nnc(/N=C/c4ccc(-c5ccccc5)cc4)s3)n2)s1)/c1ccc(-c2ccccc2)cc1 [4e, (1E,1'E)-N,N'-(pyridine-2,6-diylbis(1,3,4-thiadiazole-5,2-diyl))bis(1-([1,1'-biphenyl]-4-yl)methanimine)]",less potent than the standard drug
2,"CN(C)c1ccc(/C=N/c2nnc(-c3cccc(-c4nnc(/N=C/c5ccc(N(C)C)cc5)s4)n3)s2)cc1 [4i, 4,4'-((1E,1'E)-((pyridine-2,6-diylbis(1,3,4-thiadiazole-5,2-diyl))bis(azanylylidene))bis(methanylylidene))bis(N,N-dimethylaniline)]",less potent than the standard drug
3,"Cc1ccc(-c2ccc(/C=N/c3nnc(-c4cccc(-c5nnc(/N=C/c6ccc(-c7ccc(C)cc7)cc6)s5)n4)s3)cc2)cc1 [4n, (1E,1'E)-N,N'-(pyridine-2,6-diylbis(1,3,4-thiadiazole-5,2-diyl))bis(1-(4'-methyl-[1,1'-biphenyl]-4-yl)methanimine)]",less potent than the standard drug
